Measurements as given in patent US20060148730A1, “Method of treating tuberculosis” (priority 2003, published 2006).
≈ marks a conversion by molar mass, not a printed value.

Tested on: M. tuberculosis H37Rv
Assay: MIC vs. M. tuberculosis H37Rv, microplate Alamar Blue assay (MABA)
Format: cell-based
Details: not given

Compound	MIC against M. tuberculosis [µM]
cethromycin [ABT773, reference compound]	3

Same assay, conditions: Table 1a, 11,12-carbamate derivatives; anti-TB activity; read-out: MIC

Compound	MIC [µM]
CC[C@H]1OC(=O)[C@H](C)C(=O)[C@H](C)[C@@H](O[C@@H]2O[C@H](C)C[C@H](N(C)C)[C@H]2O)[C@](C)(OC)C[C@@H](C)C(=O)[C@H](C)[C@H]2N(CCCCn3ccnc3)C(=O)O[C@]12C [RU61205]	112 (≈ 82.3 µg/mL)
CCC1OC(=O)C(C)(F)C(=O)C(C)C(OC2OC(C)CC(N(C)C)C2O)C(C)(OC)CC(C)C(=O)C(C)C2N(NCCCc3ccnc4ccccc34)C(=O)OC12C (stereo not drawn) [RU3562]	16 (≈ 13 µg/mL)
cethromycin [ABT773, reference compound]	3
CC[C@H]1OC(=O)[C@H](C)C(=O)[C@H](C)[C@@H](O[C@@H]2O[C@H](C)C[C@H](N(C)C)[C@H]2O)[C@](C)(OC)C[C@@H](C)C(=O)[C@H](C)[C@H]2N(CCCn3cnc4c3c(=O)n(C)c(=O)n4C)C(=O)O[C@]12C [RU66740]	>128

Same assay, conditions: Table 2a, 11,12-diols; anti-TB activity; read-out: MIC

Compound	MIC [µM]
CC[C@H]1OC(=O)[C@H](C)C(=O)[C@H](C)[C@@H](O[C@@H]2O[C@H](C)C[C@H](N(C)C)[C@H]2O)[C@](C)(OC)C[C@@H](C)C(=NOC2CCCN(C/C=C/c3ccc(-c4ccccc4)cc3)C2)[C@H](C)[C@@H](O)[C@]1(C)O (stereo partly drawn) [RU61804]	0.5 (≈ 0.439 µg/mL)

Same assay, conditions: Table 3; parallel-synthesis carbazate library products, SPE purified; read-out: MIC

Compound	MIC [µM]
CC[C@H]1OC(=O)[C@H](C)[C@@H](O[C@H]2CC(C)(OC)[C@@H](O)[C@H](C)O2)[C@H](C)[C@@H](O[C@@H]2O[C@H](C)C[C@H](N(C)C)[C@H]2O)[C@](C)(OC)C[C@@H](C)C(=O)[C@H](C)[C@H]2N(NCc3cccnc3)C(=O)O[C@]12C (stereo partly drawn) [D9′]	>15
CC[C@H]1OC(=O)[C@H](C)[C@@H](O[C@H]2CC(C)(OC)[C@@H](O)[C@H](C)O2)[C@H](C)[C@@H](O[C@@H]2O[C@H](C)C[C@H](N(C)C)[C@H]2O)[C@](C)(OC)C[C@@H](C)C(=O)[C@H](C)[C@H]2N(NCc3cccn3CCC#N)C(=O)O[C@]12C (stereo partly drawn) [E10′]	20 (≈ 18.4 µg/mL)
CC[C@H]1OC(=O)[C@H](C)[C@@H](O[C@H]2CC(C)(OC)[C@@H](O)[C@H](C)O2)[C@H](C)[C@@H](O[C@@H]2O[C@H](C)C[C@H](N(C)C)[C@H]2O)[C@](C)(OC)C[C@@H](C)C(=O)[C@H](C)[C@H]2N(NCc3c[nH]nc3-c3ccc(F)cc3)C(=O)O[C@]12C (stereo partly drawn) [D5′]	25 (≈ 24.1 µg/mL)
CC[C@H]1OC(=O)[C@H](C)[C@@H](O[C@H]2CC(C)(OC)[C@@H](O)[C@H](C)O2)[C@H](C)[C@@H](O[C@@H]2O[C@H](C)C[C@H](N(C)C)[C@H]2O)[C@](C)(OC)C[C@@H](C)C(=O)[C@H](C)[C@H]2N(NCc3nc4ccccc4s3)C(=O)O[C@]12C (stereo partly drawn) [F7′]	16 (≈ 15 µg/mL)
CC[C@H]1OC(=O)[C@H](C)[C@@H](O[C@H]2CC(C)(OC)[C@@H](O)[C@H](C)O2)[C@H](C)[C@@H](O[C@@H]2O[C@H](C)C[C@H](N(C)C)[C@H]2O)[C@](C)(OC)C[C@@H](C)C(=O)[C@H](C)[C@H]2N(NCc3ccc([N+](=O)[O-])o3)C(=O)O[C@]12C (stereo partly drawn) [A8′]	>9
CC[C@H]1OC(=O)[C@H](C)[C@@H](O[C@H]2CC(C)(OC)[C@@H](O)[C@H](C)O2)[C@H](C)[C@@H](O[C@@H]2O[C@H](C)C[C@H](N(C)C)[C@H]2O)[C@](C)(OC)C[C@@H](C)C(=O)[C@H](C)[C@H]2N(NCc3csc(-c4ccccc4)n3)C(=O)O[C@]12C (stereo partly drawn) [F9′]	12.6 (≈ 12.1 µg/mL)
CC[C@H]1OC(=O)[C@H](C)[C@@H](O[C@H]2CC(C)(OC)[C@@H](O)[C@H](C)O2)[C@H](C)[C@@H](O[C@@H]2O[C@H](C)C[C@H](N(C)C)[C@H]2O)[C@](C)(OC)C[C@@H](C)C(=O)[C@H](C)[C@H]2N(NCc3cc(C(=O)OC)c(C)o3)C(=O)O[C@]12C (stereo partly drawn) [A12′]	>12
CC[C@H]1OC(=O)[C@H](C)[C@@H](O[C@H]2CC(C)(OC)[C@@H](O)[C@H](C)O2)[C@H](C)[C@@H](O[C@@H]2O[C@H](C)C[C@H](N(C)C)[C@H]2O)[C@](C)(OC)C[C@@H](C)C(=O)[C@H](C)[C@H]2N(NCc3cnn(-c4ccc(F)cc4)c3C)C(=O)O[C@]12C (stereo partly drawn) [D7′]	13 (≈ 12.7 µg/mL)
CC[C@H]1OC(=O)[C@H](C)[C@@H](O[C@H]2CC(C)(OC)[C@@H](O)[C@H](C)O2)[C@H](C)[C@@H](O[C@@H]2O[C@H](C)C[C@H](N(C)C)[C@H]2O)[C@](C)(OC)C[C@@H](C)C(=O)[C@H](C)[C@H]2N(NCc3cn(Cc4ccccc4)c4ccccc34)C(=O)O[C@]12C (stereo partly drawn) [C2′]	7 (≈ 7.05 µg/mL)
CC[C@H]1OC(=O)[C@H](C)[C@@H](O[C@H]2CC(C)(OC)[C@@H](O)[C@H](C)O2)[C@H](C)[C@@H](O[C@@H]2O[C@H](C)C[C@H](N(C)C)[C@H]2O)[C@](C)(OC)C[C@@H](C)C(=O)[C@H](C)[C@H]2N(NCc3sccc3Oc3ccccc3)C(=O)O[C@]12C (stereo partly drawn) [G4′]	13 (≈ 12.7 µg/mL)
CC[C@H]1OC(=O)[C@H](C)[C@@H](O[C@H]2CC(C)(OC)[C@@H](O)[C@H](C)O2)[C@H](C)[C@@H](O[C@@H]2O[C@H](C)C[C@H](N(C)C)[C@H]2O)[C@](C)(OC)C[C@@H](C)C(=O)[C@H](C)[C@H]2N(NCCCc3ccccc3)C(=O)O[C@]12C (stereo partly drawn) [A2′]	10 (≈ 9.06 µg/mL)
CC[C@H]1OC(=O)[C@H](C)[C@@H](O[C@H]2CC(C)(OC)[C@@H](O)[C@H](C)O2)[C@H](C)[C@@H](O[C@@H]2O[C@H](C)C[C@H](N(C)C)[C@H]2O)[C@](C)(OC)C[C@@H](C)C(=O)[C@H](C)[C@H]2N(NCc3cn(S(=O)(=O)c4ccc(C)cc4)c4ccccc34)C(=O)O[C@]12C (stereo partly drawn) [C4′]	11 (≈ 11.8 µg/mL)
CC[C@H]1OC(=O)[C@H](C)[C@@H](O[C@H]2CC(C)(OC)[C@@H](O)[C@H](C)O2)[C@H](C)[C@@H](O[C@@H]2O[C@H](C)C[C@H](N(C)C)[C@H]2O)[C@](C)(OC)C[C@@H](C)C(=O)[C@H](C)[C@H]2N(/N=C/c3c(C)noc3-c3ccccc3)C(=O)O[C@]12C (stereo partly drawn) [C12′]	9 (≈ 8.61 µg/mL)
CC[C@H]1OC(=O)[C@H](C)[C@@H](O[C@H]2CC(C)(OC)[C@@H](O)[C@H](C)O2)[C@H](C)[C@@H](O[C@@H]2O[C@H](C)C[C@H](N(C)C)[C@H]2O)[C@](C)(OC)C[C@@H](C)C(=O)[C@H](C)[C@H]2N(NCc3c(Sc4ccc(Cl)cc4)nc4sccn34)C(=O)O[C@]12C (stereo partly drawn) [H11′]	35.4 (≈ 37.8 µg/mL)
CC[C@H]1OC(=O)[C@H](C)[C@@H](O[C@H]2CC(C)(OC)[C@@H](O)[C@H](C)O2)[C@H](C)[C@@H](O[C@@H]2O[C@H](C)C[C@H](N(C)C)[C@H]2O)[C@](C)(OC)C[C@@H](C)C(=O)[C@H](C)[C@H]2N(NC/C=C/c3cc(OC)c(O)c(OC)c3)C(=O)O[C@]12C (stereo partly drawn) [A6′]	10.2 (≈ 10 µg/mL)
CC[C@H]1OC(=O)[C@H](C)[C@@H](O[C@H]2CC(C)(OC)[C@@H](O)[C@H](C)O2)[C@H](C)[C@@H](O[C@@H]2O[C@H](C)C[C@H](N(C)C)[C@H]2O)[C@](C)(OC)C[C@@H](C)C(=O)[C@H](C)[C@H]2N(NCc3nccn3C)C(=O)O[C@]12C (stereo partly drawn) [B3′]	>18
CC[C@H]1OC(=O)[C@H](C)[C@@H](O[C@H]2CC(C)(OC)[C@@H](O)[C@H](C)O2)[C@H](C)[C@@H](O[C@@H]2O[C@H](C)C[C@H](N(C)C)[C@H]2O)[C@](C)(OC)C[C@@H](C)C(=O)[C@H](C)[C@H]2N(NCc3cccc4nsnc34)C(=O)O[C@]12C (stereo partly drawn) [H3′]	>22

Same assay, conditions: Table 4; read-out: MIC

Compound	MIC [µM]
CCC1OC(=O)C(C)C(OC2CC(C)(OC)C(O)C(C)O2)C(C)C(OC2OC(C)CC(N(C)C)C2O)C(C)(OC)CC(C)C(=NOC2CCCNC2)C(C)C(O)C1(C)O (stereo not drawn) [ITR0009]	24 (≈ 20.3 µg/mL)
CCC1OC(=O)C(C)C(OC2CC(C)(OC)C(O)C(C)O2)C(C)C(OC2OC(C)CC(N(C)C)C2O)C(C)(OC)CC(C)C(=NOC2CCCN(C(=O)OCc3ccccc3)C2)C(C)C(O)C1(C)O (stereo not drawn) [ITR0011]	6.0 (≈ 5.88 µg/mL)
CCC1OC(=O)C(C)C(OC2CC(C)(OC)C(O)C(C)O2)C(C)C(OC2OC(C)CC(N(C)C)C2O)C(C)(OC)CC(C)C(=NOCCCCF)C(C)C(O)C1(C)O (stereo not drawn) [Compound 1DP79]	3.5 (≈ 2.93 µg/mL)
CCC1OC(=O)C(C)C(OC2CC(C)(OC)C(O)C(C)O2)C(C)C(OC2OC(C)CC(N(C)C)C2O)C(C)(OC)CC(C)C(=NOCCC2OCCO2)C(C)C(O)C1(C)O (stereo not drawn) [Compound 1GY11]	29.5 (≈ 25.5 µg/mL)

Same assay, conditions: Table 5; read-out: MIC

Compound	MIC [µM]
CCCCCCNC(=O)OC1C(OC2C(C)C(OC3CC(C)(OC)C(O)C(C)O3)C(C)C(=O)OC(CC)C(C)(O)C(O)C(C)C(=O)C(C)CC2(C)OC)OC(C)CC1N(C)C (stereo not drawn) [Compound 1SH88]	15 (≈ 13.1 µg/mL)
CCC1OC(=O)C(C)C(OC2CC(C)(OC)C(O)C(C)O2)C(C)C(OC2OC(C)CC(N(C)C)C2O)C(C)(O)CC(C)C(=NNCc2ccc(SC)cc2)C(C)C(O)C1(C)O (stereo not drawn) [Compound 1OK137]	47 (≈ 41.6 µg/mL)
CCC1OC(=O)C(C)C(OC2CC(C)(OC)C(O)C(C)O2)C(C)C(OC2OC(C)CC(N(C)C)C2O)C(C)(O)CC(C)C(=NNC2CCCCC2)C(C)C(O)C1(C)O (stereo not drawn) [Compound 1OK107]	3.9 (≈ 3.24 µg/mL)
CCC1OC(=O)C(C)C(OC2CC(C)(OC)C(O)C(C)O2)C(C)C(OC2OC(C)CC(N(C)C)C2O)C(C)(O)CC(C)C(=NN=Cc2cccc(OC(F)(F)F)c2)C(C)C(O)C1(C)O (stereo not drawn) [Compound 1OK109]	11 (≈ 10.1 µg/mL)
CCC1OC(=O)C(C)C(OCc2ccccc2)C(C)C(OC2OC(C)CC([N+](C)(C)Cc3ccccc3)C2OCc2ccccc2)C(C)(OC)CC(C)C(=NOCc2ccccc2)C(C)C(O)C1(C)O (stereo not drawn) [Compound 2GY12]	6.3
CCC1OC(=O)C(C)C(O)C(C)C(OC2OC(C)CC(N(C)C)C2O)C(C)(OC)CC(C)C(=NOCCC2CCCCC2)C(C)C(O)C1(C)O (stereo not drawn) [Compound 2GY5]	3.1 (≈ 2.22 µg/mL)
CCC1OC(=O)C(C)C(OC2CC(C)(OC)C(O)C(C)O2)C(C)C(OC2OC(C)CC(N(C)C)C2O)C(C)(O)CC(C)C(=NN=Cc2cccc(C(F)(F)F)c2)C(C)C(O)C1(C)O (stereo not drawn) [Compound 1OK119]	16 (≈ 14.5 µg/mL)
CCC1OC(=O)C(C)C(OC2CC(C)(OC)C(O)C(C)O2)C(C)C(OC2OC(C)CC(N(C)C)C2OC(=S)Nc2ccccc2)C(C)(OC)CC(C)C(=O)C(C)C(O)C1(C)O (stereo not drawn) [Compound 3ZZ61b]	7.3 (≈ 6.45 µg/mL)

Same assay, conditions: result in words

Compound	anti-TB activity / MIC in words
CC[C@H]1OC(=O)[C@H](C)C(=O)[C@H](C)[C@@H](O[C@@H]2O[C@H](C)C[C@H](N(C)C)[C@H]2O)[C@](C)(OC)C[C@@H](C)C(=NOC2CCCN(C/C=C/c3ccc(-c4ccccc4)cc3)C2)[C@H](C)[C@@H](O)[C@]1(C)O (stereo partly drawn) [RU61804]	most potent of the tested 9-oxime compounds
